Literature values, collected in patent publication US4665052A, “Renin inhibitors containing homophe^8 and a C-terminal amide cycle” (Merck & Co., Inc., priority 1984, dated 1987).

Columns and labels:
[1] = system: aspartyl proteases such as pepsin, cathepsin D, and renin; conditions: selectivity
hog renin = conditions: after injection of hog renin into nephrectomized rats; Gross et al. 1971

Substance: pepstatin
- inhibition of other acid proteases in addition to renin [1]: inhibition of a variety of other acid proteases in addition to renin
- blood pressure in vivo (hog renin): reduce blood pressure in vivo
